We go through ten compounds from patent US4119657A, “Novel peroxycarbonate” (priority 1976, dated 1978).

Where two headings read alike, the source gives them in different places.

The conditions of data set [1]: 105° C. From the text: The susceptibility of the peroxycarbonate to heat decomposition can be ascertained from its half life and the foaming temperature thereof.
Data set [2] in a line: Foaming decomposition temperature. It is filed as physicochemical.
The conditions of data set [3]: prior art peroxide; cited from earlier work.
For data set [4] the following is noted: prior art peroxide, peroxy group in the copolymer; cited from earlier work.

Regarding `C=C(C)COC(=O)OOC(C)(C)CC(C)(C)C` [1,1,3,3-tetramethylbutylperoxy methallyl carbonate], the Half life in data set [1] (solvent benzene) was determined as 1.1 h. Besides, the foaming decomposition temperature in data set [2] came out at 106.5 °C.
Regarding `C=CCOC(=O)OOC(C)(C)CC(C)(C)C` [1,1,3,3-tetramethylbutylperoxy allyl carbonate], the Half life in data set [1] (solvent benzene) stood at 1.4 h. The compound also came in with a foaming decomposition temperature in data set [2] of 103.5 °C.
`C=C(C)COC(=O)OOC(C)(C)C` [t-butylperoxy methallyl carbonate]: the Half life in data set [1] (solvent benzene) came to 2.9 h; in data set [1] (solvent toluene), 4.9 h. Further, in data set [2], the foaming decomposition temperature worked out at 117.5 °C.
In data set [1] (solvent benzene), `CC(C)C(=O)OOC(C)(C)C` [t-butyl peroxy isobutyrate, t-butyl peroxyisobutyrate, reference compound] returned a Half life of 0.37 h.
Take butyl peroxymethacrylate: the “storage stability, in words” value in data set [3] is recorded as “not stable during storage”.
The compound t-hexylperoxy methallyl carbonate registered a Half life in data set [1] (solvent benzene) of 2.9 h. Moreover, in data set [2], the foaming decomposition temperature came out at 115.5 °C.
Regarding t-hexylperoxy allyl carbonate, in data set [1] (solvent benzene), the Half life came to 3.8 h. In data set [2], this compound registered a foaming decomposition temperature of 107.3 °C.
As to `C=CCOC(=O)OOC(C)(C)C` [t-butylperoxy allyl carbonate], the results for the Half life in data set [1] (solvent benzene) and in data set [1] (solvent toluene) were 3.9 h and 6.9 h, respectively. Besides, in data set [2], the foaming decomposition temperature was 117.5 °C.
Turning to `CC(C)OC(=O)OOC(C)(C)C` [t-butylperoxy isopropyl carbonate, reference compound], the Half life in data set [1] (solvent benzene) came out at 4.1 h.
As to `C/C=C/C(=O)OOC(C)(C)C` [t-butylperoxycrotonate], the “decomposition activity, in words” value in data set [4] is on record as “active at low temperature”.
